We go through two molecules from patent publication US10662210B2, “Compositions and methods comprising osmium for the treatment of cancers” (Massachusetts Institute of Technology, priority 2014, dated 2020).

The test system of series [1] is A2780 cells. The series can be described thus: DNA flow cytometric cell cycle analysis. The series is classed as cell-based, human. The method, then: After 24 hours untreated A2780 cells had the following distribution: G1: 73.4%, S: 21.7%, and G2/M: 5.0%. After 48 hours untreated A2780 cells had the following distribution: G1: 75.1%, S: 19.6%, and G2/M: 5.2%. After 72 hours untreated had the following distribution: G1: 73.6%, S: 21.0%, and G2/M: 5.4%. After 24 hours A2780 cells treated with 2 had the following distribution: G1: 61.0%, S: 27.9%, and G2/M: 11.1%. After 48 hours A2780 cells treated with 2: G1: 61.8%, S: 19.0%, and G2/M: 19.1%. After 72 hours A2780 cells treated with 2 had the following distribution: G1: 57.3%, S: 23.3%, and G2/M: 19.4%. This property may be related to upregulation of p53 and phosphorylation of CHK1. Complex 4 induced relatively small perturbations to the cell cycle; changes in phase populations remained <5% even after a 72-hours incubation. After 24 hours untreated A2780 cells had the following distribution: G1: 73.7%, S: 23.1%, and G2/M: 3.3%. After 48 hours untreated A2780 cells had the following distribution: G1: 73.4%, S: 21.7%, and G2/M: 4.9%. After 72 hours untreated A2780 cells had the following distribution: G1: 79.7%, S: 19.4%, and G2/M: 0.9%. After 24 hours A2780 cells treated with 4 had the following distribution: G1: 70.9%, S: 24.8%, and G2/M: 4.6%. After 48 hours A2780 cells treated with 4 had the following distribution: G1: 71.9%, S: 18.3%, and G2/M: 9.8%. After 72 hours A2780 cells treated with 4 had the following distribution: G1: 70.3%, S: 24.4%, and G2/M: 5.3%.
In order to monitor the cell cycle, flow cytometry studies were carried out. A2780 cells were incubated with and without the test compounds for 24-72 h at 37° C. Studies on A549 cells under normal and starved (proliferating and non-proliferating) conditions were also carried out. Cells were harvested from adherent cultures by trypsinization. Following centrifugation at 1000 rpm for 5 min, cells were washed with PBS and then fixed with 70% ethanol in PBS. Fixed cells were collected by centrifugation at 2500 rpm for 3 min, washed with PBS and centrifuged as before. Cellular pellets were re-suspended in 50 μg/ml propidium iodide (Sigma) in PBS for nucleic acids staining and treated with 100 μg/ml RNaseA (Sigma). DNA content was measured on a FACSCalibur-HTS flow cytometer (BD Biosciences) using laser excitation at 488 nm and 20,000 events per sample were acquired. Cell cycle profiles were analysed using the ModFit software. For the apoptosis experiments, the Annexin V-FITC Early Apoptosis Detection Kit was used. The manufacture's protocol was followed to carry out this experiment. Briefly, untreated and treated cells (1×10^5) were suspended in 1× annexin binding buffer (96 μL) (10 mM HEPES, 140 mM NaCl, 2.5 mM CaCl2), pH 7.4), then 1 μL FITC annexin V and 12.5 μL PI (10 μg/mL) were added to each sample and incubated on ice for 15 min. After which more binding buffer (150 μL) was added while gently mixing. The samples were kept on ice prior to being read on the FACSCalibur-HTS flow cytometer (BD Biosciences) and 20,000 events per sample were acquired. Cell populations were analysed using the FlowJo software (Tree Star).
(In general: Flow cytometry measures light scatter and fluorescence of single cells or particles in a stream.)

Series [2] deals with ER of A2780 cells. The series can be described thus: Fluorescence microscopy of ER size (ER tracker Blue). Type of series: cell-based, human. Conditions: 10 μM. Here is the method: This finding led to the investigation of the possibility that 4 may induce endoplasmic reticulum (ER) stress. Co-administration of 4 and salubrinal (10 μM), a known ER stress inhibitor, reduced the cytotoxicity of 4 in A2780 cells. […] To further validate the ER as the main target for 4, the expression of proteins related to the unfolded protein response (UPR) was monitored. […] ER membrane expansion is widely associated with ER stress. With this fact in mind the ER size of A2780 cells upon incubation with 4 were examined using fluorescence microscopy. Relative to untreated controls (FIG. 3B), cells exposed to 4 (10 μM) for 4 h had 25.1% larger ER coverage (FIG. 3C). […]
A2780 cells (1×10^4) were incubated with and without 4 (10 μM) for 6 h. […] Fluorescence imaging experiments were performed using a Zeiss Axiovert 200M inverted epifluorscence microscope with a Hamamatsu EM-CCD digital camera C9100 and a MS200 XY Piezo Z stage (Applied Scientific Instruments, Inc.). […] The exposure time for acquisition of fluorescence images was kept constant for each series of images at each channel. The ER and whole cell size was quantified using ImageJ (version 1.45, NIH). The size of the whole cell was measured by tracing the outline of the cell membrane in the DIC view. The size of the ER was measured by tracing the outline of emission observed from ER tracker Blue in the DAPI (blue) channel. […]

Series [3] is described as follows: Stability of 2 by UV-vis spectroscopy and variable temperature 1H NMR. The series is classed as physicochemical. The source says:
The bidentate ligands used were 2,2′-bipyridine, 1,10-phenanthroline, 3,4,7,8-tetramethyl-1,10-phenanthroline, and 4,7-diphenyl-1,10-phenanthroline. The complexes were synthesized by reacting (Bu4N)[OsNCl4] with the appropriate ligand in acetone or dichloromethane. Characterization of 1-4 and the crystal structure of 4 are reported in Example 4. Prior to carrying out cellular studies, the stability of 2, taken as a representative member of the family, in phosphate buffered saline (PBS) and DMEM cell culture media was established by UV-vis spectroscopy. […] The water-octanol coefficient (log P) for each compound was also determined.

Where only a bound is given, the exact number is not on record here.

As for `[N]#[Os]1([Cl])([Cl])([Cl])[N]2C=CC(c3ccccc3)=c3ccc4c(c32)[N]1C=CC=4c1ccccc1` [Complex 4, OsN(4,7-diphenyl-1,10-phenanthroline)Cl3], in series [1] (24 hours), the “cell cycle distribution G1” value worked out at 70.9%, the “cell cycle distribution G2/M” value worked out at 4.6% and the “cell cycle distribution S” value was determined as 24.8%. In series [1] (48 hours), the “cell cycle distribution G1” value is 71.9%, the “cell cycle distribution G2/M” value was 9.8% and the “cell cycle distribution S” value was determined as 18.3%. In addition, in series [1] (72 hours), the “cell cycle distribution G1” value is reported as 70.3%, the “cell cycle distribution G2/M” value is given as 5.3% and the “cell cycle distribution S” value amounted to 24.4%. Also, the “changes in phase populations” value in series [1] (up to 72-hours incubation) is on record as under 5%. The “larger ER coverage relative to untreated controls” value in series [2] (4 h) turned out to be 25.1%. In addition, the “ER size relative to the whole cell” value in series [2] (treated samples) is “about 55%”.
As to `[N]#[Os]1([Cl])([Cl])([Cl])[N]2C=CC=c3ccc4c(c32)[N]1C=CC=4` [Complex 2, OsN(1,10-phenanthroline)Cl3], in series [1] (24 hours), the “cell cycle distribution G1” value is given as 61.0%, the “cell cycle distribution G2/M” value is 11.1% and the “cell cycle distribution S” value worked out at 27.9%. Further, in series [1] (48 hours), the “cell cycle distribution G1” value turned out to be 61.8%, the “cell cycle distribution G2/M” value was 19.1% and the “cell cycle distribution S” value came out at 19.0%. The “increase in G2/M population” value in series [1] (72 h incubation) is about 3 fold. In series [1] (72 hours), the “cell cycle distribution G1” value is 57.3%, the “cell cycle distribution G2/M” value was found to be 19.4% and the “cell cycle distribution S” value is reported as 23.3%. The “stability in phosphate buffered saline (PBS) and DMEM cell culture media” value in series [3] (UV-vis spectroscopy) is on record as “established”. The thermal stability result in series [3] (variable temperature 1H NMR spectroscopy) is recorded as “demonstrated”.
